Measurements from publication PMC11892739, “Site-specific molecular glues for the 14-3-3/Tau pS214 protein–protein interaction via reversible covalent imine tethering” (RSC Medicinal Chemistry, 2025).
Entries after “also recorded” stand apart in the source; their conditions may differ.

What was measured:
[1] = biological target: T1, 14-3-3γ/Tau pS214 complex (Homo sapiens, UniProt P61981); assay: Differential scanning fluorimetry of 14-3-3γ with Tau pS214 peptide and compounds; format: binding; conditions: compound 30 equiv., Tau pS214 10 equiv.
T1 construct: made in house; host or cells: NiCo21 (DE3) E. coli
Experimental: Fig. 5 a Phospho-site selective 14-3-3/Tau PPI stabilization. b SF250μM of selected compounds for stabilization of the 14-3-3γ complex with Tau pS214 and Tau pS324 peptides based on the internal DMSO reference. Mean of two separately performed experiments (see ESI ^† Fig. S9 for the corresponding binding curves). c Differential scanning fluorimetry assay results. Identified melting temperatures (Tm) of 14-3-3γ in the presence of the Tau pS214 or pS324 peptide and compounds 1 and 18. […]
chromatography (HisTrap high performance cartridges, Cytiva). […] Dialyzed protein was concentrated to ∼40 mg/mL, analyzed by Q -Tof LC/MS, and aliquots were flash -frozen for storage at −80 °C. […]
DSF was performed using 40 µl samples containing 2.5 µM 14 -3-3ζ, 25 µM Tau peptide (Tau pS2, Tau pS214 or Tau pS324), […] (1% DMSO) and 5x ProteoOrange (Lumiprobe, 5000x stock in DMSO) in 10 mM HEPES, 150 mM NaCl, 50 µM TCEP (pH 7.4). […] Fluorescence intensity was determined using excitation ( λem=525/20 nm) and emission ( λex=570/20 nm) filters.
Based on these melting curves, the negative derivative melting curve is obtained from which the melting temperature Tm was determined. All described melting temperatures are based on two or three independent experiments, from which the average and standard deviations were determined. […]

[2] = biological target: 14-3-3γ (Homo sapiens, UniProt P61981); assay: 19F-NMR spectroscopy of fluorinated analogs at varying 14-3-3 concentrations; format: binding; conditions: 125 μM stabilizer, 14-3-3 0-250 μM, no Tau peptide
Experimental: Fig. 3 a Dose–response fluorescence anisotropy data of compound titrations to 10 nM FITC-labeled Tau pS2 peptide and 100 nM 14-3-3ζ. […] Mean of three individually performed experiments (see ESI ^† Fig. S8 for the protein titrations). e Differential scanning fluorimetry assay results. Identified melting temperatures (Tm) of 14-3-3γ alone (2.5 μM) and in the presence of Tau pS2 peptide (25 μM) and additionally with selected compounds (75 μM).
This stepwise mechanism has been described in detail for related benzaldehyde stabilizers and the 14-3-3/Pin1 interaction.[34] However, the imidazolyl-benzaldehydes might also show an intrinsic binding affinity for 14-3-3. To elucidate the underlying processes, we performed ^19F-NMR spectroscopy studies (Fig. 3f) with the fluorinated analogs 20 and 21. At a constant stabilizer concentration (125 μM), the 14-3-3 concentration was varied from 0 μM to 250 μM.

14-3-3γ, sequence (P61981 whole entry): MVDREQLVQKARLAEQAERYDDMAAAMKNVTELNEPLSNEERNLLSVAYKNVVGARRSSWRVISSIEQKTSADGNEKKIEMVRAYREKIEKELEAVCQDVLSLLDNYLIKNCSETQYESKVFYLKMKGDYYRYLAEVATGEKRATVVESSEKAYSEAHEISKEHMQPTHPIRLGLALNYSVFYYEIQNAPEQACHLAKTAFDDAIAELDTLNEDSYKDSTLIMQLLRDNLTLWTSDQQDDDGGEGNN
T1 sequence (P61981 whole entry, other chains not shown): as the sequence (P61981 whole entry) above

| SMILES | increase in 14-3-3γ melting temperature on addition of compound, Tau pS214 complex [1] | binding to 14-3-3 by 19F-NMR (in words) [2] |
| --- | --- | --- |
| O=Cc1ccc(-n2ccnc2-c2ccccc2)cc1Br [Compound 1] | ~0.6 °C |  |
| CCc1ccc(-c2nccn2-c2ccc(C=O)c(Br)c2)cc1 [Compound 18] | ~1.7 °C |  |
| O=Cc1ccc(-n2ccnc2-c2ccc(C(F)(F)F)cc2)cc1Br [Compound 20] |  | formation of the binary 14-3-3/stabilizer complex |
| O=Cc1ccc(-n2ccnc2-c2ccc(OC(F)(F)F)cc2)cc1Br [Compound 21] |  | ligand binding to 14-3-3γ; also recorded: formation of the binary 14-3-3/stabilizer complex |
